Patent US8604001B2, “Use of sulfated oligosaccharides as slimming cosmetic ingredients” (priority 2007, dated 2013)

What was measured:
[1] = test system: normal human adipocytes; test: Inhibition of lipogenesis ([2-14C] acetate incorporation into lipids) in suspensions of human adipocytes; assay type: cell-based; conditions: 1 mM; for cpm (radioactivity of extracted lipids): 1 h preincubation, 4 h with [2-14C] acetate, control 472253
Procedure: The ex vivo inhibition of lipogenesis was evaluated in suspensions of human adipocytes which were isolated from a sampling taken during an abdominal plasty performed on a person. The adipocytes suspension was incubated for one hour at 37° C. with 3 or 5% of a solution of sulfated oligosaccharides prepared according to example 1 (hydrolysis time: 16 hours), or with a standard study solution (1 mM theophylline or caffeine), on in the absence of these solutions (control). Each assay was done in triplicate. A radioactive marker [2-^14C] acetate was then added to the various assays at a concentration of 2.5 μCi/mL. After 4 hours of incubation at 37° C., the lipids were extracted by a methanol/chloroform/water mixture and then dehydrated. The radioactivity, expressed in counts per minute (cpm), is then quantified through liquid scintigraphy (LKB 1210 Rackbeta). The statistical analysis was performed according to the Dunnett's multiple comparison test.

[2] = test system: normal human adipocytes; test: Stimulation of lipolysis (Non-Esterified Fatty Acids released) in suspensions of human adipocytes; assay type: cell-based; conditions: 1 mM; for NEFA: 2 hours at 37° C., control 96
Procedure: The lipolysis stimulation activity was evaluated in suspensions of human adipocytes isolated from a sample taken during an abdominal plasty performed on a person. The adipocytes suspension was incubated, for 2 hours at 37° C. with 3 or 5% of a solution of sulfated oligosaccharides prepared according to example 1 (16 hours of, hydrolysis time) in percentage of total weight of the culture, or with standard study solutions (1 mM theophylline or caffeine) or in the absence of solutions (control). Each assay was performed 6 times. At the end of the incubation period, the Non-Esterified Fatty Acids (NEFA) which were; present in the incubation mediums were measured with commercially available dosage kits (OXOID 46 551).

[3] = test system: thighs of healthy volunteers; test: Slimming effect of hydro-alcohol gels: thigh circumference measured in centimeters over 8 weeks; conditions: for change of thigh circumference versus T0: hydro-alcohol gel applied twice a day, 25 volunteers

Compound	% Control (lipogenesis) [1] [%]	cpm (radioactivity of extracted lipids) [1] [cpm]	% Control (lipolysis, NEFA) [2] [%]	NEFA [2] [µM]	change of thigh circumference versus T0 ([3]; 14 days) [cm]	change of thigh circumference versus T0 ([3]; 28 days) [cm]	average decrease of the circumference of the thigh ([3]; 56 days, gel applied twice a day) [cm]	change of thigh circumference versus T0 ([3]; 56 days) [cm]	slimming effect (in words) ([3]; after 14 treatment days)
Cn1c(=O)c2[nH]cnc2n(C)c1=O [Theophylline, theophylline]	6	27225	560	537	–	–	–	–	–
Cn1c(=O)c2c(ncn2C)n(C)c1=O [Caffeine, caffeine]	4	20741	547	525	0	−0.1	0.3	−0.3	no slimming effect
